According to patent US20240140957A1, “BRIDGED COMPOUNDS AS KRAS G12D INHIBITOR AND DEGRADER AND THE USE THEREOF” (BeiGene Switzerland GmbH, priority 2021, published 2024):

What follows are compounds tested against GDP-loaded KRAS G12D (Homo sapiens, UniProt P01116, G12D) (assay: KRAS G12D Probe Displacement Assay). Conditions: KRAS G12D 0.5 nM, biotinylated probe 2 4 nM; Table 6 letters; read-out: KRAS G12D Probe Displacement Assay IC50 (class).
Format: binding

GDP-loaded KRAS G12D, sequence (P01116 1-188 isoform P01116-2 G12D): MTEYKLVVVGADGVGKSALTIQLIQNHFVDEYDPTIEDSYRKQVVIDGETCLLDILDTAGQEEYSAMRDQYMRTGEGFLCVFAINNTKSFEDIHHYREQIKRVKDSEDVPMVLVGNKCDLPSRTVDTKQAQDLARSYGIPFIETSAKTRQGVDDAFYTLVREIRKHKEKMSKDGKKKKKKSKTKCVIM

IC50, > 1000 nM:
Cn1nc(N)c(-c2cc3nc(OC[C@@]45CCCN4C[C@H](F)C5)nc(N4CC5CCC(C4)N5)c3cc2Cl)c1C1CC1 [Example E135, 4-(4-(3,8-diazabicyclo[3.2.1]octan-3-yl)-6-chloro-2-(((2R,7aS)-2-fluorotetrahydro-1H-pyrrolizin-7a(5H)-yl)methoxy)quinazolin-7-yl)-5-cyclopropyl-1-methyl-1H-pyrazol-3-amine]
F[C@H]1CN2CCC[C@@]2(COc2nc(N3CC4CCC(C3)N4)c3cc(Cl)c(-n4ncc5cccc(Cl)c54)cc3n2)C1 [Example E136, 4-(3,8-diazabicyclo[3.2.1]octan-3-yl)-6-chloro-7-(7-chloro-1H-indazol-1-yl)-2-(((2R,7aS)-2-fluorotetrahydro-1H-pyrrolizin-7a(5H)-yl)methoxy)quinazoline]

IC50, 50 to 100 nM:
Nc1nc2c(-c3c(C(F)(F)F)cc4c(N5CC6CCC(C5)N6)nc(OCC5CCCC5O)nc4c3F)ccc(F)c2s1 (stereo not shown) [Example E220]

IC50, < 50 nM:
Cc1cc(N)nc(-c2c(Cl)cc3c(N4CC5CCC(C4)N5)nc(OCC(C)(C)C#N)nc3c2F)c1C(F)(F)F [Example E194, 3-((7-(6-amino-4-methyl-3-(trifluoromethyl)pyridin-2-yl)-4-(3,8-diazabicyclo[3.2.1]octan-3-yl)-6-chloro-8-fluoroquinazolin-2-yl)oxy)-2,2-dimethylpropanenitrile]
Nc1nc2c(-c3c(C(F)(F)F)cc4c(N5CC6CCC(C5)N6)nc(OCC5CC(O)C5)nc4c3F)ccc(F)c2s1 (stereo not shown) [Example E173]
CC1(COc2nc(N3CC4CCC(C3)N4)c3cc(C(F)(F)F)c(-c4ccc(F)c5sc(N)nc45)c(F)c3n2)CCO1 (stereo not shown) [Example E166, 4-(4-(3,8-diazabicyclo[3.2.1]octan-3-yl)-8-fluoro-2-((2-methyloxetan-2-yl)methoxy)-6-(trifluoromethyl)quinazolin-7-yl)-7-fluorobenzo[d]thiazol-2-amine]
Nc1cc(Cl)c(C(F)(F)F)c(-c2c(Cl)cc3c(N4C5CCC4CNC5)nc(OC[C@@]45CCCN4C[C@H](F)C5)nc3c2F)n1 [Example E102, 6-(4-(3,8-diazabicyclo[3.2.1]octan-8-yl)-6-chloro-8-fluoro-2-(((2R,7aS)-2-fluorotetrahydro-1H-pyrrolizin-7a(5H)-yl)methoxy)quinazolin-7-yl)-4-chloro-5-(trifluoromethyl)pyridin-2-amine]
Oc1cc(F)c(C(F)(F)F)c(-c2c(Cl)cc3c(N4CC5CCC(C4)N5)nc(OC[C@@]45CCCN4C[C@H](F)C5)nc3c2F)c1 [Example E126, 3-(4-(3,8-diazabicyclo[3.2.1]octan-3-yl)-6-chloro-8-fluoro-2-(((2R,7aS)-2-fluorotetrahydro-1H-pyrrolizin-7a(5H)-yl)methoxy)quinazolin-7-yl)-5-fluoro-4-(trifluoromethyl)phenol]
Nc1nc2c(-c3c(C(F)(F)F)cc4c(N5CC6CCC(C5)N6)nc(OCC5COC(=O)N5)nc4c3F)ccc(F)c2s1 (stereo not shown) [Example E170, 4-(((7-(2-amino-7-fluorobenzo[d]thiazol-4-yl)-4-(3,8-diazabicyclo [3.2.1]octan-3-yl)-8-fluoro-6-(trifluoromethyl)quinazolin-2-yl)oxy)methyl)oxazolidin-2-one]
Nc1nc2c(-c3c(C(F)(F)F)cc4c(N5CC6CCC(C5)N6)nc(OCC5(O)CCOCC5)nc4c3F)ccc(F)c2s1 [Example E221, 4-(((7-(2-amino-7-fluorobenzo[d]thiazol-4-yl)-4-(3,8-diazabicyclo [3.2.1]octan-3-yl)-8-fluoro-6-(trifluoromethyl)quinazolin-2-yl)oxy)methyl)tetrahydro-2H-pyran-4-ol]
N#Cc1c(N)sc2c(F)ccc(-c3c(Cl)cc4c(N5CC6CCC(C5)N6)nc(OCC5(CN6CCC(F)C6)CCC5)nc4c3F)c12 (stereo not shown) [Example E132, 4-(4-(3,8-diazabicyclo[3.2.1]octan-3-yl)-6-chloro-8-fluoro-2-((1-((3-fluoropyrrolidin-1-yl)methyl)cyclobutyl)methoxy)quinazolin-7-yl)-2-amino-7-fluorobenzo [b]thiophene-3-carbonitrile]
Nc1nc2c(-c3c(C(F)(F)F)cc4c(N5CC6CCC(C5)N6)nc(OCC5CCCOC5)nc4c3F)ccc(F)c2s1 (stereo not shown) [Example E216, 4-(4-(3,8-diazabicyclo[3.2.1]octan-3-yl)-8-fluoro-2-((tetrahydro-2H-pyran-3-yl)methoxy)-6-(trifluoromethyl)quinazolin-7-yl)-7-fluorobenzo[d]thiazol-2-amine]
Cc1cc(N)nc(-c2c(Cl)cc3c(N4CC5CCC(C4)N5)nc(OCC4(C)CNC(=O)C4)nc3c2F)c1C(F)(F)F (stereo not shown) [Example E208, 4-(((7-(6-amino-4-methyl-3-(trifluoromethyl)pyridin-2-yl)-4-(3,8-diazabicyclo[3.2.1]octan-3-yl)-6-chloro-8-fluoroquinazolin-2-yl)oxy)methyl)-4-methylpyrrolidin-2-one]
Cc1cc(N)nc(-c2c(Cl)cc3c(N4CC5CCC(C4)N5)nc(OCC4(C)CCC(=O)NC4)nc3c2F)c1C(F)(F)F (stereo not shown) [Example E225, 5-(((7-(6-amino-4-methyl-3-(trifluoromethyl)pyridin-2-yl)-4-(3,8-diazabicyclo[3.2.1]octan-3-yl)-6-chloro-8-fluoroquinazolin-2-yl)oxy)methyl)-5-methylpiperidin-2-one]
Cc1cc(N)nc(-c2c(C(F)F)cc3c(N4CC5CCC(C4)N5)nc(OC[C@@]45CCCN4C[C@H](F)C5)nc3c2F)c1C(F)(F)F [Example E100, 6-(4-(3,8-diazabicyclo[3.2.1]octan-3-yl)-6-(difluoromethyl)-8-fluoro-2-(((2R,7aS)-2-fluorotetrahydro-1H-pyrrolizin-7a(5H)-yl)methoxy)quinazolin-7-yl)-4-methyl-5-(trifluoromethyl)pyridin-2-amine]
CC(=O)N1CC(COc2nc(N3CC4CCC(C3)N4)c3cc(Cl)c(-c4nc(N)cc(C)c4C(F)(F)F)c(F)c3n2)C1 [Example E226, 1-(3-(((7-(6-amino-4-methyl-3-(trifluoromethyl)pyridin-2-yl)-4-(3,8-diazabicyclo[3.2.1]octan-3-yl)-6-chloro-8-fluoroquinazolin-2-yl)oxy)methyl)azetidin-1-yl)ethan-1-one]
Cc1cc(N)nc(-c2c(Cl)cc3c(N4CC5CCC(C4)N5)nc(OCC4(CO)CCC4)nc3c2F)c1C(F)(F)F [Example E200, (1-(((7-(6-amino-4-methyl-3-(trifluoromethyl)pyridin-2-yl)-4-(3,8-diazabicyclo[3.2.1]octan-3-yl)-6-chloro-8-fluoroquinazolin-2-yl)oxy)methyl)cyclobutyl) methanol]
CC1(COc2nc(N3CC4CCC(C3)N4)c3cc(C(F)(F)F)c(-c4ccc(F)c5sc(N)nc45)c(F)c3n2)CCOCC1 [Example E182, 4-(4-(3,8-diazabicyclo[3.2.1]octan-3-yl)-8-fluoro-2-((4-methyltetra hydro-2H-pyran-4-yl)methoxy)-6-(trifluoromethyl)quinazolin-7-yl)-7-fluorobenzo[d]thiazol-2-amine]
COCC(CO)(COc1nc(N2CC3CCC(C2)N3)c2cc(C(F)(F)F)c(-c3ccc(F)c4sc(N)nc34)c(F)c2n1)OC (stereo not shown) [Example E169, 3-((7-(2-amino-7-fluorobenzo[d]thiazol-4-yl)-4-(3,8-diazabicyclo [3.2.1]octan-3-yl)-8-fluoro-6-(trifluoromethyl)quinazolin-2-yl)oxy)-2-methoxy-2-(methoxymethyl)propan-1-ol]
Nc1nc2c(-c3c(C(F)(F)F)cc4c(N5CC6CCC(C5)N6)nc(OCC5(CO)CCCC5)nc4c3F)ccc(F)c2s1 [Example E190, (1-(((7-(2-amino-7-fluorobenzo[d]thiazol-4-yl)-4-(3,8-diazabicyclo[3.2.1]octan-3-yl)-8-fluoro-6-(trifluoromethyl)quinazolin-2-yl)oxy)methyl)cyclopentyl)methanol]
C#Cc1cc(N)nc(-c2c(Cl)cc3c(N4C5CCC4CNC5)nc(OC[C@@]45CCCN4C[C@H](F)C5)nc3c2F)c1C(F)(F)F [Example E113, 6-(4-(3,8-diazabicyclo[3.2.1]octan-8-yl)-6-chloro-8-fluoro-2-(((2R,7aS)-2-fluorotetrahydro-1H-pyrrolizin-7a(5H)-yl)methoxy)quinazolin-7-yl)-4-ethynyl-5-(trifluoromethyl)pyridin-2-amine]
Nc1nc2c(-c3c(C(F)(F)F)cc4c(N5CC6CCC(C5)N6)nc(OCC5(CO)CC(F)C5)nc4c3F)ccc(F)c2s1 (stereo not shown) [Example E158, (1-(((7-(2-amino-7-fluorobenzo[d]thiazol-4-yl)-4-(3,8-diazabicyclo[3.2.1]octan-3-yl)-8-fluoro-6-(trifluoromethyl)quinazolin-2-yl)oxy)methyl)-3-fluorocyclobutyl)methanol]
Cc1cc(N)nc(-c2c(Cl)cc3c(N4CC5CCC(C4)N5)nc(OCC4(C#N)CCOC4)nc3c2F)c1C(F)(F)F (stereo not shown) [Example E206, 3-(((7-(6-amino-4-methyl-3-(trifluoromethyl)pyridin-2-yl)-4-(3,8-diazabicyclo[3.2.1]octan-3-yl)-6-chloro-8-fluoroquinazolin-2-yl)oxy)methyl)tetrahydrofuran-3-carbonitrile]

IC50, 100 to 1000 nM:
COC[C@@]1(COc2nc(N3C4CNCC3COC4)c3cc(F)c(-c4nc(N)cc(C)c4C(F)(F)F)c(F)c3n2)C[C@@H](F)CN1C [Example E137, 6-(4-(3-oxa-7,9-diazabicyclo[3.3.1]nonan-9-yl)-6,8-difluoro-2-(((2R,4R)-4-fluoro-2-(methoxymethyl)-1-methylpyrrolidin-2-yl)methoxy)quinazolin-7-yl)-4-methyl-5-(trifluoromethyl)pyridin-2-amine]
COC1CN2CC(F)CC2(COc2nc(N3C4CNCC3COC4)c3cc(F)c(-c4nc(N)cc(C)c4C(F)(F)F)c(F)c3n2)C1 (stereo not shown) [Example E138, 6-(4-(3-oxa-7,9-diazabicyclo[3.3.1]nonan-9-yl)-6,8-difluoro-2-((2-fluoro-6-methoxytetrahydro-1H-pyrrolizin-7a(5H)-yl)methoxy)quinazolin-7-yl)-4-methyl-5-(trifluoromethyl)pyridin-2-amine]
